This is an account of results in patent US11040053B2, “Compositions and methods for activating “stimulator of interferon gene”13 dependent signalling” (CHINOOK THERAPEUTICS, INC., priority 2015, dated 2021).

Assay [1] concerns the target T1, wild type (WT) STING allele (Homo sapiens, UniProt Q86WV6, H232R).
T1 construct: one donor was homozygous for the wild type (WT) STING allele; endogenous in cells; host or cells: human PBMCs, donor STING WT/WT
The assay can be described thus: Cytokine transcript induction (qRT-PCR) in STING^WT/WT hPBMCs. Format: cell-based. As to conditions: for relative normalized IFNβ expression, in words: FIGS. 7A-B, 2 hours stimulation, 100 μM to 0.1 μM. The protocol:
The induction of type I interferon was measured in human primary blood mononuclear cells (hPBMCs) to evaluate the potency of mono- or di-F-CDN compounds as described herein. hPBMCs from two unique donors were used: one donor was homozygous for the wild type (WT) STING allele (STING^WT/WT) and the other donor was homozygous for the so-called reference (REF) STING allele (STING^REF/REF). The STING genotype of these donors was determined by PCR amplification and sequencing: genomic DNA was isolated from 10^4 hPBMCs using Quick Extract DNA Extraction Solution (Epicentre) and was used to amplify regions of exon 3, 6, and 7 of the human STING gene.
Cells were incubated at 37° C., 5% CO2 with concentrations ranging from 100 μM to 0.1 μM of each CDN. After 2 hours (FIGS. 7 and 8) or 2 hours and 6 hours (FIGS. 9-13) stimulation, cells were harvested by centrifugation and washed once with phosphate-buffered saline. Cellular RNA was isolated using the Aurum Total RNA 96 Kit and cDNA was synthesized using the iScript cDNA Synthesis Kit. Target and reference gene expression was assessed by real-time qRT-PCR using PrimePCR probe assays and the CFX96 gene cycler (all reagents and equipment from BioRad). Normalized IFNβ expression was expressed relative to untreated cells. Target genes included type I interferon (IFNβ), Th1-associated cytokines (IFNγ, IL-12p40) and NF-kB dependent inflammatory cytokines (TNFα, IL-6). Reference genes included GUSB alone (FIGS. 7 and 8) or GUSB and HSP90AB1 (FIGS. 9-13).
(In general: Real-time PCR tracks product formation cycle by cycle.)

Assay [2] has as its system MC38. Put plainly: MC38 colon carcinoma mouse model, intra-tumoral injection. It is filed as in vivo, C57BL/6 female mice. To be noted: FIG. 15B, IT 10 or 100 μg, three injections, vs HBSS. The protocol: To assess the ability of the fluorinated derivative compounds to promote anti-tumor immunity in diverse murine tumor models, tumor cells were implanted (in 100 μL PBS) subcutaneously on the lower back of 6-8 week old C57BL/6 female mice. Treatments began when tumors reached a volume of approximately 100 mm^3, on approximately day 14 post tumor implantation (see table below for tumor type, number of cells, and day of IT injection). The CDN compounds were administered by IT injection (10 or 100 μg in a total volume of 40 μL HBSS), and repeated every three days for a total of three injections. The compounds 3′3′-RR-(2′F-A)(2′F-A) and 3′3′-RR-(2′F-G)(2′F-A) and control mice given vehicle only (40 μL HBSS) were dosed. Tumors were measured twice weekly.

For assay [3], the system named is HIVgag p55 protein. The assay can be described thus: Immunization with HIVgag p55 protein plus CDN, splenocyte IFNγ ELISPOT. To be noted: 1 μg or 5 μg CDN in AddaVax with 5 μg HIVgag p55 s.c., day 7 IFNγ ELISPOT, vs no CDN; for HIVgag p55 antigen specific CD4+ T-cell response, in words: FIG. 16A. Format: in vivo, BALB/c mice. The protocol: To determine whether the fluorinated derivatives could elicit HIVgag-specific CD4^+ and CD8^+ T cell responses, BALB/c mice (n=4) were immunized subcutaneously with 0 μg (no CDN), 1 μg or 5 μg of CDN formulated in 2% squalene-and-water (AddaVax, Invivogen) with 5 μg HIVgag p55 protein. Seven days following the vaccination, spleens were harvested from the mice and splenocytes prepared. 2×10^5 splenocytes were stimulated overnight in an IFNγELISPOT assay with media alone (unstimulated) or with 1 μM HIVgag p55 CD4^+ and CD8^+ specific peptides. IFNγ ELISPOTs were developed and quantified using a CTL plate reader and ImmunoSpot software. 3′3′-RR-(2′F-A)(2′F-A) and 3′3′-RR-(2′F-G)(2′F-A) were evaluated for their ability to induce HIVgag-specific immune responses.

Assay [4] has as its target hSTING(REF) (Homo sapiens, UniProt Q86WV6). Put plainly: IFN-β luciferase reporter in HEK293T cells stably expressing hSTING(REF), digitonin permeabilization. To be noted: FIGS. 6A-B, 0.1 μM to 100 μM and 6.25 μM CDN. (In general: A reporter such as luciferase makes a cellular process visible.)
Method: 24 hours later, cells were stimulated with native and synthetic CDN derivative molecules using digitonin permeabilization to ensure uniform uptake.
After 20 min, the stimulation mixtures were removed and 200 ul of DMEM media supplemented with 10% (vol/vol) fetal bovine serum, 1% L-Glutamine, and 1% Penicillin/Streptomycin was added. Cells were incubated an additional 6 hours (37° C., 5% CO2) and then cell lysates were prepared and reporter gene activity measured on a Spectramax M3 luminometer using the Dual-Glo Luciferase Assay System (Promega, catalog #E2920) as described by the manufacturer. IFNβ firefly luciferase reporter gene activity was normalized to TK renilla luciferase gene activity and plotted as fold induction over activity in unstimulated cells (mean+/−s.e.m.).
For assay [5], the target named is hSTING(WT) (Homo sapiens, UniProt Q86WV6, H232R). The assay can be described thus: Differential scanning fluorometry (DSF) binding to purified hSTING WT. More on the design: DNA encoding amino acids 140-379 (amino acid numbering corresponding to Swiss Prot Q86WV6); 6xHIS (N, cleaved yes); SUMO (N, cleaved yes); made in house; host or cells: Rosetta2 (DE3) E. coli. As to conditions: for Tm shift compared with non fluorine substituted compounds and 2′3′-(G)(A), in words: FIG. 3, hSTING (WT); for binding relative to OH reference compound, in words / binding relative to naturally produced 2′3′-(G)(A), in words: Table 4 comment, wild type hSTING.

The structures appear in SMILES notation. “Also recorded” adds a separate entry of the source.

Chain of hSTING(WT) (Q86WV6 140-379 H232R): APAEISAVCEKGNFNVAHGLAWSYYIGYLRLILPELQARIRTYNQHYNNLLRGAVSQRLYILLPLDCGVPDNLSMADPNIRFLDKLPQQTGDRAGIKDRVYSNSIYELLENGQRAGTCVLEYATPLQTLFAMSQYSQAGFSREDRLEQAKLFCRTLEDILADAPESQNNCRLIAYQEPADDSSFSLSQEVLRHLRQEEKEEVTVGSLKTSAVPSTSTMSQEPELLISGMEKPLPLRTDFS
T1 sequence (Q86WV6 whole entry H232R): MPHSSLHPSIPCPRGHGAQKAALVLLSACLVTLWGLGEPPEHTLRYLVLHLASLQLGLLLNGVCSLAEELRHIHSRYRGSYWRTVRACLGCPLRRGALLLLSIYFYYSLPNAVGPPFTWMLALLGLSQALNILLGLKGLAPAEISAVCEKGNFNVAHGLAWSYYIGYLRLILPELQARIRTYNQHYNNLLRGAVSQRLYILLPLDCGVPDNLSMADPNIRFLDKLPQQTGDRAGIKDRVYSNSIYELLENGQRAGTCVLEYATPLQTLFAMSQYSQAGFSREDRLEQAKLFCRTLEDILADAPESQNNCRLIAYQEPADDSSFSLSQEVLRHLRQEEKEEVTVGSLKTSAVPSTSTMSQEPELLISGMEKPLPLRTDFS
Chain of hSTING(REF) (Q86WV6 whole entry, the tested form may be a part): as the sequence (Q86WV6 whole entry H232R) above, with R232H counted along it

As to `Nc1nc2c(ncn2[C@@H]2O[C@@H]3CO[P@@](=O)(S)O[C@H]4[C@@H](F)[C@H](n5cnc6c(N)ncnc65)O[C@@H]4CO[P@@](=O)(S)O[C@H]3[C@H]2F)c(=O)[nH]1` (stereo in doubt) [Compound 14, 2-Amino-9-((2R,3R,3aR,5R,7aR,9R,10R,10aR,12R,14aR)-9-(6-amino-9H-purin-9-yl)-3,10-difluoro-5,12-dimercapto-5,12-dioxidooctahydro-2H,7H-difuro [3,2-d:3′,2′-j][1,3,7,9]tetraoxa[2,8]diphosphacyclododecin-2-yl)-1,9-dihydro-6H-purin-6-one], the “relative normalized IFNβ expression, in words” value in assay [1] is “most potent inducer of type I interferon in STING^WT/WT hPBMCs”. Besides, the “IFNβ level compared to the parent cGAMP compound” value in assay [1] (in the dose range tested) is on record as 10-100 fold. Also, the “tumor volume, in words” value in assay [2] is listed as “elicited complete tumor regression at all doses tested”. In addition, in assay [3], the “HIVgag p55 antigen specific CD4+ T-cell response, in words” value was “eliciting significant CD4+ T cell responses against HIVgag p55”. Also, in assay [3] (FIG. 16B), the “HIVgag p55 antigen specific CD8+ T-cell response, in words” value is given as “elicited significant CD8^+ T cell responses against HIVgag p55”. In addition, in assay [4], the “IFNβ luciferase reporter induction by hSTING(REF), in words” value was “strongly induced IFNβ reporter activity, to a level similar to the endogenous cellular ligand 2′3′-(G)(A)”. Moreover, in assay [5], the “Tm shift compared with non fluorine substituted compounds and 2′3′-(G)(A), in words” value is on record as “increased Tm shift”; the “binding relative to OH reference compound, in words” value is listed as “improved binding”; the “binding relative to naturally produced 2′3′-(G)(A), in words” value was “improved binding”.

`Nc1ncnc2c1ncn2[C@@H]1O[C@@H]2CO[P@@](=O)(S)O[C@H]3[C@@H](F)[C@H](n4cnc5c(N)ncnc54)O[C@@H]3CO[P@@](=O)(S)O[C@H]2[C@H]1F` [Compound 6, (2R,3R,3aR,5R,7aR,9R,10R,10aR,12R,14aR)-2,9-bis(6-amino-9H-purin-9-yl)-3,10-difluoro-5,12-dimercaptooctahydro-2H,7H-difuro[3,2-d:3′,2′-j][1,3,7,9]tetraoxa[2,8]diphosphacyclododecine 5,12-dioxide]: the “relative normalized IFNβ expression, in words” value in assay [1] (listed as 3′3′-RR-(2′F-A)(2′F-A)) is “induced similar levels of IFNβ; also recorded: induced higher levels of IFNβ transcript when compared to the 3′3′-(A)(A) compound; also recorded: stimulated higher levels of IFNβ transcript by STING^WT/WT hPBMCs when compared to non-canonical 2′3′-(G)(A)”. Besides, the “tumor volume, in words” value in assay [2] is given as “elicited complete tumor regression at all doses tested”. The “HIVgag p55 antigen specific CD4+ T-cell response, in words” value in assay [3] was “eliciting significant CD4+ T cell responses against HIVgag p55”. For the same molecule, in assay [4], the “IFNβ luciferase reporter induction by hSTING(REF), in words” value is given as “strongly induced IFNβ reporter activity, to a level similar to the endogenous cellular ligand 2′3′-(G)(A)”. Moreover, the “hSTING Tm Shift WT” value in assay [5] (DSF, 1 mg/ml STING AA140-379, ligand 1 mM) amounted to 19.3 °C. Further, in assay [5], the “Tm shift compared with non fluorine substituted compounds and 2′3′-(G)(A), in words” value is listed as “increased Tm shift”; the “binding relative to OH reference compound, in words” value is on record as “improved binding”; the “binding relative to naturally produced 2′3′-(G)(A), in words” value is on record as “improved binding”.
